Test results from ChEMBL document CHEMBL1128839, “Aminodiol HIV protease inhibitors. 2. 1,1-Dimethyl-2-hydroxyethyl carbamate derivatives with enhanced potency” (Bioorg Med Chem Lett, 1995).

What was measured:
CCRF-CEM [1] = test: Cytotoxicity against CEM cells; format: functional, Homo sapiens
CCRF-CEM [2] = test: Compound was evaluated for its ability to inhibit the replication of HIV-1 virus by 50% in cell culture using XTT endpoint; format: functional; conditions: Homo sapiens, read-out: ED50 (the source's name)
[3] = biological target: Human immunodeficiency virus type 1 protease (Human immunodeficiency virus 1, UniProt Q72874); test: Inhibition of HIV protease cleavage of V-S-Q-N-(b-naphthylalanine)-P-I-V
CCRF-CEM [4] = test: Compound was evaluated for its ability to inhibit the replication of HIV-2 virus (strain CBL-20) by 50% in cell culture using XTT endpoint; format: functional; conditions: Homo sapiens, read-out: ED50 (the source's name)
[5] = Half-life period by analytical HPLC at pH 7.2; format: ADME

## CC(C)(C)OC(=O)N[C@@H](Cc1ccccc1)[C@H](O)CNC[C@@H](O)[C@H](Cc1ccccc1)NC(=O)OC(C)(C)C
CCRF-CEM [1]
  Cytotoxicity: >=10000 nM
CCRF-CEM [2]
  EC50: 80 nM

## CC(C)(C)OC(=O)N[C@@H](Cc1ccccc1)[C@H](O)CNC[C@@H](O)[C@H](Cc1ccccc1)NC(=O)OC(C)(C)CCO
CCRF-CEM [1]
  Cytotoxicity: >=10000 nM
[3]
  IC50: 200 nM
CCRF-CEM [2]
  EC50: 175 nM

## CC(C)(C)OC(=O)N[C@@H](Cc1ccccc1)[C@H](O)CNC[C@@H](O)[C@H](Cc1ccccc1)NC(=O)OC(C)(C)CCCO
CCRF-CEM [1]
  Cytotoxicity: >=10000 nM
[3]
  IC50: 1100 nM
CCRF-CEM [2]
  EC50: 650 nM

## CC(C)(C)OC(=O)N[C@@H](Cc1ccccc1)[C@H](O)CNC[C@@H](O)[C@H](Cc1ccccc1)NC(=O)OC(C)(C)CO
CCRF-CEM [4]
  EC50: 103 nM
CCRF-CEM [1]
  Cytotoxicity: >=10000 nM
[3]
  IC50: 35 nM
CCRF-CEM [2]
  EC50: 38 nM

## COCC(C)(C)OC(=O)N[C@@H](Cc1ccccc1)[C@H](O)CNC[C@@H](O)[C@H](Cc1ccccc1)NC(=O)OC(C)(C)C
CCRF-CEM [1]
  Cytotoxicity: >=10000 nM
[3]
  IC50: 420 nM
CCRF-CEM [2]
  EC50: 1040 nM

## C[C@@H](O)C(C)(C)OC(=O)N[C@@H](Cc1ccccc1)[C@H](O)CNC[C@@H](O)[C@H](Cc1ccccc1)NC(=O)OC(C)(C)C
CCRF-CEM [1]
  Cytotoxicity: >10 µM
[3]
  IC50: 160 nM
CCRF-CEM [2]
  EC50: 320 nM

## C[C@H](O)C(C)(C)OC(=O)N[C@@H](Cc1ccccc1)[C@H](O)CNC[C@@H](O)[C@H](Cc1ccccc1)NC(=O)OC(C)(C)C
CCRF-CEM [1]
  Cytotoxicity: >10 µM
[3]
  IC50: 105 nM
CCRF-CEM [2]
  EC50: 35 nM

## CC(C)(C)OC(=O)N[C@@H](Cc1ccccc1)[C@H](O)CNC[C@@H](O)[C@H](Cc1ccccc1)NC(=O)OC(C)(C)CN
[3]
  IC50: > 10000 nM

## CC(C)(CO)OC(=O)N[C@@H](Cc1ccccc1)[C@H](O)CNC[C@@H](O)[C@H](Cc1ccccc1)NC(=O)OC(C)(C)CO
CCRF-CEM [1]
  Cytotoxicity: >10 µM
[3]
  IC50: 16 nM
CCRF-CEM [2]
  EC50: 843 nM

## CC(C)(C)OC(=O)N[C@@H](Cc1ccccc1)[C@H](O)CNC[C@@H](O)[C@H](Cc1ccccc1)NC(=O)OC(C)(C)CNC=O
CCRF-CEM [1]
  Cytotoxicity: >=10000 nM
[3]
  IC50: 1500 nM
CCRF-CEM [2]
  EC50: 610 nM

## CC(C)(C)OC(=O)N[C@@H](Cc1ccccc1)[C@H](O)CNC[C@@H](O)[C@H](Cc1ccccc1)NC(=O)OCCO
CCRF-CEM [1]
  Cytotoxicity: >10 µM
[3]
  IC50: 230 nM
CCRF-CEM [2]
  EC50: 280 nM

## CC(C)(C)OC(=O)N[C@@H](Cc1ccccc1)[C@H](O)CNC[C@@H](O)[C@@H](N)Cc1ccccc1
[3]
  IC50: > 10000 nM

## CC(C)(C)OC(=O)N[C@@H](Cc1ccccc1)[C@H](O)CNC[C@@H](O)[C@H](Cc1ccccc1)NC(=O)OC(C)(CO)CO
[5]
  half-life: 18 h
CCRF-CEM [1]
  Cytotoxicity: >10 µM
[3]
  IC50: 200 nM

## CC(C)(C)OC(=O)N[C@@H](Cc1ccccc1)[C@H](O)CNC[C@@H](O)[C@H](Cc1ccccc1)NC(=O)OC1(CO)CCC1
CCRF-CEM [1]
  Cytotoxicity: >10 µM
[3]
  IC50: 100 nM
CCRF-CEM [2]
  EC50: 155 nM
